# Assay results as given in patent US10758534B2 (Vertex Pharmaceuticals Incorporated, priority 2014, dated 2020).
# Molecular target: T1, F508del (Homo sapiens, UniProt P13569, DEL508-508)
# T1 construct: expressed in transfected cells
# Assay: Protocol 1: membrane potential optical assay (FLIPR III, voltage sensing dye), identification of potentiator compounds
# Type: cell-based
# Conditions: Table 3, compounds of Table 1
# Procedure, shortened: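 NIH 3T3 fibroblasts stably expressing F508del were cultured at 27° C for 24 hrs for temperature correction, then treated with compounds or DMSO and loaded with a voltage-sensing redistribution dye. Forskolin added with a Cl⁻ gradient activated the channel; membrane-potential fluorescence on FLIPR III reported increased gating.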
# T1 sequence (P13569 with tags, fused parts or gaps DEL508-508): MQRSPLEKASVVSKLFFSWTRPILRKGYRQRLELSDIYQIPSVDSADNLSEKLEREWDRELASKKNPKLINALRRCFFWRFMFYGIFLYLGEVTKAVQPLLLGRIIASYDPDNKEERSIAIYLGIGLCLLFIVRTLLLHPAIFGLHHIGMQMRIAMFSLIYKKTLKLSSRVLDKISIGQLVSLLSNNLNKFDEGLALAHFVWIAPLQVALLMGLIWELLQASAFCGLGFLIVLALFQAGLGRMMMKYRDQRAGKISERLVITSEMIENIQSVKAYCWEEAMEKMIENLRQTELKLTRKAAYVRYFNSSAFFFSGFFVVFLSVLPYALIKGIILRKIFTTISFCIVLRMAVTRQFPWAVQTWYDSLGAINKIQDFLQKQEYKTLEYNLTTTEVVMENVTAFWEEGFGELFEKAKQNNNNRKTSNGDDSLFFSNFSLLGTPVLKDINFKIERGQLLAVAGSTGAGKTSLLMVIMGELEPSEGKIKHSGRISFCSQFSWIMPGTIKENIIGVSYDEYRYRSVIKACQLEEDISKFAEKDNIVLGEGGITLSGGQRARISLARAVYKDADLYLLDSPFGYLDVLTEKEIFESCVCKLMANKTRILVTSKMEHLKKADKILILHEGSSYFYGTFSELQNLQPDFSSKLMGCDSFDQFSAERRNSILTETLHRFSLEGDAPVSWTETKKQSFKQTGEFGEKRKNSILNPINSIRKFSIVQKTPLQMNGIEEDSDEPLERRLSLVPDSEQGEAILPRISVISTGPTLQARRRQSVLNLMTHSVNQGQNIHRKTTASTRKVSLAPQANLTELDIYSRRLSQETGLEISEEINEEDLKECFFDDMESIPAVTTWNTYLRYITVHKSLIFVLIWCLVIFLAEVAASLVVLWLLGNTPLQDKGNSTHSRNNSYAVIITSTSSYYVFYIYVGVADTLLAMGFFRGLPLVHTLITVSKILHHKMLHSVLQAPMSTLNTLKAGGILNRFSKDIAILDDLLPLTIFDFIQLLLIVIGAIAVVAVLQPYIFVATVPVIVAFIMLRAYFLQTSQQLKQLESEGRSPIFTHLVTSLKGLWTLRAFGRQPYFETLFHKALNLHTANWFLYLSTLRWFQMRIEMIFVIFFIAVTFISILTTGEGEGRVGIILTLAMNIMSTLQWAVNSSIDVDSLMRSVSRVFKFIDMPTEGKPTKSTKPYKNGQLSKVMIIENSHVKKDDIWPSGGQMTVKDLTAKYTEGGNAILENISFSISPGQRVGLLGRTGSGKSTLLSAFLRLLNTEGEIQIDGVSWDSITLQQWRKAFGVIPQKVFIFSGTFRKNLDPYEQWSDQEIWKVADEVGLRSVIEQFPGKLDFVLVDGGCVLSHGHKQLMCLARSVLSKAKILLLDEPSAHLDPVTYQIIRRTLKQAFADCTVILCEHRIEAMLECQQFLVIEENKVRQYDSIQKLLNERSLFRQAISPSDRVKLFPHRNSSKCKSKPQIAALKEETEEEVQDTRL
row,EC30,SMILES
1,+++ (“+++” means <3 uM),"C[C@@H]1CN(c2nc(-c3cccc(OCC(C)(C)C)n3)ccc2C(=O)NS(=O)(=O)c2cccc(N)n2)C(C)(C)C1 [Compound 1663, N-[(6-amino-2-pyridyl)sulfonyl]-6-[6-(2,2-dimethylpropoxy)-2-pyridyl]-2-[(4S)-2,2,4-trimethylpyrrolidin-1-yl]pyridine-3-carboxamide]"
2,+++ (“+++” means <3 uM),"CCOc1cccc2c1CN(Cc1c(C)cc(C)cc1C)C2(C)C(=O)NS(=O)(=O)c1cccc2[nH]ccc12 (centres unmarked) [Compound 1666, 4-ethoxy-N-(1H-indol-4-ylsulfonyl)-1-methyl-2-[(2,4,6-trimethylphenyl)methyl]isoindoline-1-carboxamide]"
3,+++ (“+++” means <3 uM),"CCOc1cccc2c1CN(Cc1c(C)cc(C)cc1C)C2(C)C(=O)NS(=O)(=O)c1cccnc1 (centres unmarked) [Compound 1669, 4-ethoxy-1-methyl-N-(3-pyridylsulfonyl)-2-[(2,4,6-trimethylphenyl)methyl]isoindoline-1-carboxamide]"
4,++ (“++” means between 3 uM and 10 uM),"Cc1cc(C)c(Cn2nc(C(C)(C)C)cc2C(=O)NS(=O)(=O)c2ccc(CN)cc2)c(C)c1 [Compound 1670, N-[4-(aminomethyl)phenyl]sulfonyl-5-tert-butyl-2-[(2,4,6-trimethylphenyl)methyl]pyrazole-3-carboxamide]"
5,+++ (“+++” means <3 uM),"Cc1cc(OC(C)C)cc(-c2ccc(C(=O)NS(=O)(=O)c3cccc(N)n3)c(N3C[C@@H](C)CC3(C)C)n2)c1 [Compound 1671, N-[(6-amino-2-pyridyl)sulfonyl]-6-(3-isopropoxy-5-methyl-phenyl)-2-[(4S)-2,2,4-trimethylpyrrolidin-1-yl]pyridine-3-carboxamide]"
6,+++ (“+++” means <3 uM),"C[C@@H]1CN(c2nc(C3CCC(C(F)(F)F)CC3)ccc2C(=O)NS(=O)(=O)c2cccc(N)n2)C(C)(C)C1 (stereo partly drawn) [Compound 1672, N-[(6-amino-2-pyridyl)sulfonyl]-6-[4-(trifluoromethyl)cyclohexyl]-2-[(4S)-2,2,4-trimethylpyrrolidin-1-yl]pyridine-3-carboxamide]"

# Further lines, the compound ahead of its results:
row,SMILES,EC30
1,"C[C@@H]1CN(c2nc(C3=CCC(C(F)(F)F)CC3)ccc2C(=O)NS(=O)(=O)c2cccc(N)n2)C(C)(C)C1 (stereo partly drawn) [Compound 1664, N-[(6-amino-2-pyridyl)sulfonyl]-6-[4-(trifluoromethyl)cyclohexen-1-yl]-2-[(4S)-2,2,4-trimethylpyrrolidin-1-yl]pyridine-3-carboxamide]",+++ (“+++” means <3 uM)
2,"C[C@@H]1CN(c2nc(C(C)(C)C)c(/C=C/C3CC3)cc2C(=O)NS(=O)(=O)c2cccc(N)n2)C(C)(C)C1 [Compound 1665, N-[(6-amino-2-pyridyl)sulfonyl]-6-tert-butyl-5-[(E)-2-cyclopropylvinyl]-2-[(4S)-2,2,4-trimethylpyrrolidin-1-yl]pyridine-3-carboxamide]",+++ (“+++” means <3 uM)
3,"CC(C)COc1cc(F)cc(-c2ccc(C(=O)NS(=O)(=O)c3cccc(N)n3)c(C3=CCC(C(F)(F)F)CC3)n2)c1 (centres unmarked) [Compound 1667, N-[(6-amino-2-pyridyl)sulfonyl]-6-(3-fluoro-5-isobutoxy-phenyl)-2-[4-(trifluoromethyl)cyclohexen-1-yl]pyridine-3-carboxamide]",++ (“++” means between 3 uM and 10 uM)
4,"CC(C)COc1cc(F)cc(-c2ccc(C(=O)NS(=O)(=O)c3cccc(N)n3)c(OCC3(C)CC3)n2)c1 [Compound 1668, N-[(6-amino-2-pyridyl)sulfonyl]-6-(3-fluoro-5-isobutoxy-phenyl)-2-[(1-methylcyclopropyl)methoxy]pyridine-3-carboxamide]",+++ (“+++” means <3 uM)
5,"C[C@@H]1CN(c2nc(N3C[C@@H](C)CC3(C)C)c(C(=O)NS(=O)(=O)c3cccc(N)n3)cc2F)C(C)(C)C1 [Compound 1673, N-[(6-amino-2-pyridyl)sulfonyl]-5-fluoro-2,6-bis[(4S)-2,2,4-trimethylpyrrolidin-1-yl]pyridine-3-carboxamide]",+++ (“+++” means <3 uM)
